Measured values published in PubChem BioAssay AID504625 (Southern Research Specialized Biocontainment Screening …, 2011).

Test system: human PBMC, HIV-1 X4 replication, supernatant RT activity
Assay: anti-HIV-1 activity in primary human blood cells – cell-based, human PBMC, set 3, dose response (AID 504625)

Cc1c2c(=O)n(-c3nc4ccccc4s3)nc-2cc(O)n1Cc1ccccc1 gave an IC50 of 1510 nM.
